According to patent US20070129419A1, “Serotonin transporter (SERT) inhibitors for the treatment of depression and anxiety” (priority 2005, published 2007):
pKi: −log10 of the molar value. Read-outs that look alike come from different tables or passages of the source.

Key:
human NK-1 receptor = target: T1, human NK-1 receptor (Homo sapiens, UniProt P25103); assay: hNK-1 binding assay ([3H]substance P displacement, CHO cells); conditions: [3H]substance P 0.6 nM, CHO cells transfected with human NK-1 receptor; read-out: pKi hNK1 (converted)
T1 construct: expressed in transfected cells; host or cells: CHO cells, Semliki virus expression system; membrane suspension
T1 sequence (P25103 whole entry): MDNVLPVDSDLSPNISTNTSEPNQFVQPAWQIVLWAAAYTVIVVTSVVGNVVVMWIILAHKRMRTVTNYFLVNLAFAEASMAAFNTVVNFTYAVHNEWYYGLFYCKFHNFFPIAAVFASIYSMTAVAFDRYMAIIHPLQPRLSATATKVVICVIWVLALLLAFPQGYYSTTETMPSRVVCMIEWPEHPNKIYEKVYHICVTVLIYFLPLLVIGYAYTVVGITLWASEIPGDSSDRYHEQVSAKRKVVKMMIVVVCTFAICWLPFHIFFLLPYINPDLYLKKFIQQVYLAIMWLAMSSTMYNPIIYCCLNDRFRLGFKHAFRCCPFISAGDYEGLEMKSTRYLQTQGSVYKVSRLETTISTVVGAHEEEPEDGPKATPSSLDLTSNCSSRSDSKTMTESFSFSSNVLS
Method: The affinity of test compounds for the NK-1 receptor was evaluated at human NK-1 receptors in CHO cells transfected with the human NK-1 receptor using the Semliki virus expression system and radiolabelled with [^3H]substance P (final concentration 0.6 nM). Binding assays were performed in HEPES buffer (50 mM, pH 7.4) containing BSA (0.04%) leupeptin (8 μg/ml), MnCl2 (3 mM) and phosphoramidon (2 μM). Binding assays consisted of 250 μl of membrane suspension (1.25×10^5 cells/assay tube), 125 μl of buffer of displacing agent and 125 μl of [^3H]substance P. Displacement curves were determined with at least ten concentrations of the compound. The assay tubes were incubated for 60 min at room temperature after which time the tube contents were rapidly filtered under vacuum through GF/C filters presoaked for 60 min with PEI (0.3%) with 2×2 ml washes of HEPES buffer (50 mM, pH 7.4). The radioactivity retained on the filters was measured by scintillation counting. All assays were performed in duplicate in at least 2 separate experiments.
The inhibition dissociation constant (Ki) of each compound for NK1 is determined as described above for hSERT.

recombinant human SERT = target: T2, recombinant human SERT (Homo sapiens, UniProt P31645); assay: hSERT SPA binding assay ([3H]citalopram displacement, HEK-293 membranes); conditions: for Ki: [3H]citalopram 1 nM, HEK-293 membranes expressing human SERT, read-out: pKi hSERT (converted)
T2 construct: expressed in transfected cells; membrane preparation
T2 sequence (P31645 whole entry): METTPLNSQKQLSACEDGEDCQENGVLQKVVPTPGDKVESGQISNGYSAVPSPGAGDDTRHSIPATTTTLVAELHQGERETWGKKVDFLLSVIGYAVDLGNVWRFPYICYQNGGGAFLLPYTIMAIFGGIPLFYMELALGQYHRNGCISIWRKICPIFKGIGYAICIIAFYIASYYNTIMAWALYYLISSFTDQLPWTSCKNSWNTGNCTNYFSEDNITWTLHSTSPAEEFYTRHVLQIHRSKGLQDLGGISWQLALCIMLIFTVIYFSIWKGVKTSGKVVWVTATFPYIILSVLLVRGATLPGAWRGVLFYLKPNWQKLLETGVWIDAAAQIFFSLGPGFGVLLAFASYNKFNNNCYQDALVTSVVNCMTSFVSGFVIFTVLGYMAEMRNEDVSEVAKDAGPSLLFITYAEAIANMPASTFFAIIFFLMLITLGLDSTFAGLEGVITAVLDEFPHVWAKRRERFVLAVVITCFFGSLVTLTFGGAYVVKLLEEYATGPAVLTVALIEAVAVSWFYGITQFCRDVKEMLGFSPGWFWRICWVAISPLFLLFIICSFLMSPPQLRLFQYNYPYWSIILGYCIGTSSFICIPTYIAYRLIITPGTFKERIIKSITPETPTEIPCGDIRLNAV
Method: HEK-293 cells stably expressing recombinant human SERT are maintained with DMEM high glucose with 10% FBS, 300 μg/ml G418 and 2 mM L-Glutamine and incubated at 37° C. with 5% CO2. Cells are released from culture flasks using PBS for 1-2 min. The cells are subsequently centrifuged at 1000 g's for 5 min and resuspended in PBS prior to being used in the membrane preparation.
Cells are homogenized using a Polytron in 50 mM Tris (pH 7.4). Centrifuged at 48,000×g for 15 min, and the pellet resuspended in fresh buffer. After a second centrifugation, the pellet is re-homogenized and resuspended in fresh buffer. Typically, membrane portions are aliquoted in 3 mg/ml (w:v). and stored at −80° C.
A serial dilution of test compounds in 50 mM Tris-HCl, 120 mM NaCl, KCl 5 mM (pH 7.4) is made in a white Optiplate (Packard) (100 μl/well) and the radioligand ^3[H] Citalopram (Specific activity: 60-86 Ci/mmol, Final concentration: 1 nM) is added at 50 μl/well. Membrane and beads are prepared to a ratio of 5 μg:0.6 mg, with 0.6 mg PVT-WGA Amersham beads (Cat#RPQ0282V) added per well. 50 μl of the membrane/bead mixture is added to the assay plate for a final volume of 200 μl. The mixtures are allowed to stand at room temperature for one hour, and are then counted on a Packard TopCount.
The % inhibition is calculated for each compound tested (with 100% binding being the value obtained with the incubation of membrane/beads and radioligand in buffer without compound minus the non-specific binding measured in presence of 10 μM Fluoxetine). The concentration producing 50% inhibition (IC50) is determined using an iterative non-linear curve fitting technique. The inhibition dissociation constant (Ki) of each compound is determined according to the method of Cheng-Prusoff, decribed in Biochem. Pharmacol., 1973, 22(23), pages 3099-3108.

Row | SMILES | Ki (human NK-1 receptor) [µM] | Ki (recombinant human SERT) [µM] | pKi (recombinant human SERT)
1 | Fc1ccc([C@@H]2CNC[C@@H]2COCc2cc(C(F)(F)F)cc(C(F)(F)F)c2)cc1 [1 of I] | 0.295 |  | 8.56
2 | Fc1cccc([C@@H]2CNC[C@@H]2COCc2cc(C(F)(F)F)cc(C(F)(F)F)c2)c1 [2 of I] | 0.0468 | 0.00589 | 
3 | Fc1ccccc1[C@@H]1CNC[C@@H]1COCc1cc(C(F)(F)F)cc(C(F)(F)F)c1 [3 of I] | 0.0501 | 0.00347 | 
4 | FC(F)(F)c1cc(COC[C@H]2CNC[C@H]2c2ccc(Cl)cc2)cc(C(F)(F)F)c1 [4 of I] | 0.0537 | 0.00447 | 
5 | FC(F)(F)c1cc(COC[C@H]2CNC[C@H]2c2cccc(Cl)c2)cc(C(F)(F)F)c1 [5 of I] | 0.0316 | 0.00813 | 
6 | FC(F)(F)c1cc(COC[C@H]2CNC[C@H]2c2ccccc2Cl)cc(C(F)(F)F)c1 [6 of I] | 0.0437 | 0.0102 | 
7 | Cc1ccccc1[C@@H]1CNC[C@@H]1COCc1cc(C(F)(F)F)cc(C(F)(F)F)c1 [7 of I] | 0.0288 | 0.00759 | 
8 | FC(F)(F)c1cc(COC[C@H]2CNC[C@H]2c2ccccc2)cc(C(F)(F)F)c1 [8 of I] | 0.0437 | 0.0049 | 
9 | Brc1cc(Br)cc(COC[C@H]2CNCC2c2ccccc2)c1 (stereo partly shown) [9 of I] | 0.0417 | 0.00589 | 

The next lines start with results.

Row | Ki (human NK-1 receptor) [µM] | Ki (recombinant human SERT) [µM] | SMILES | pKi (recombinant human SERT)
10 | 0.257 | 0.00457 | Cc1cc(C)cc(COC[C@H]2CNC[C@H]2c2ccccc2)c1 [10 of I] | 
11 | 0.224 | 0.00575 | Fc1cc(COC[C@H]2CNC[C@H]2c2ccccc2)cc(C(F)(F)F)c1 [11 of I] | 
12 | 0.676 | 0.011 | FC(F)(F)c1cccc(COC[C@H]2CNC[C@H]2c2ccccc2)c1 [12 of I] | 
13 | 0.759 | 0.0138 | FC(F)(F)Oc1cccc(COC[C@H]2CNC[C@H]2c2ccccc2)c1 [13 of I] | 
14 | 0.741 | 0.0204 | COc1cc(COC[C@H]2CNC[C@H]2c2ccccc2)cc(OC)c1 [14 of I] | 
15 | 0.646 | 0.0708 | FC(F)(F)c1ccccc1COC[C@H]1CNC[C@H]1c1ccccc1 [15 of I] | 
16 | 0.0263 | 0.0229 | FC(F)(F)c1cc(CNC[C@H]2CNC[C@H]2c2ccccc2)cc(C(F)(F)F)c1 [16 of I] | 
17 | 0.0316 | 0.00813 | CN(Cc1cc(C(F)(F)F)cc(C(F)(F)F)c1)C[C@H]1CNC[C@H]1c1ccccc1 [17 of I] | 
